Source: patent publication US9242970B2 (ACTELION PHARMACEUTICALS LTD., priority 2010, dated 2016)
Like-named read-outs stand apart in the source and are kept apart here.

Experiments:
[1] = biological target: human orexin-2 receptor (Homo sapiens (Human), UniProt O43614); test: In vitro assay: intracellular calcium measurements (FLIPR), antagonistic activity; format: cell-based; conditions: CHO cells, 3 nM orexin-A, marked values are geometric means of n = 2-6, read-out: IC50 OX2
[2] = biological target: human orexin-1 receptor (Homo sapiens (Human), UniProt O43613); test: as above; format: cell-based; conditions: CHO cells, 3 nM orexin-A, marked values are geometric means of n = 2-6, read-out: IC50 OX1
[3] = compound incubation time of 10 min

human orexin-2 receptor, sequence (O43614 whole entry): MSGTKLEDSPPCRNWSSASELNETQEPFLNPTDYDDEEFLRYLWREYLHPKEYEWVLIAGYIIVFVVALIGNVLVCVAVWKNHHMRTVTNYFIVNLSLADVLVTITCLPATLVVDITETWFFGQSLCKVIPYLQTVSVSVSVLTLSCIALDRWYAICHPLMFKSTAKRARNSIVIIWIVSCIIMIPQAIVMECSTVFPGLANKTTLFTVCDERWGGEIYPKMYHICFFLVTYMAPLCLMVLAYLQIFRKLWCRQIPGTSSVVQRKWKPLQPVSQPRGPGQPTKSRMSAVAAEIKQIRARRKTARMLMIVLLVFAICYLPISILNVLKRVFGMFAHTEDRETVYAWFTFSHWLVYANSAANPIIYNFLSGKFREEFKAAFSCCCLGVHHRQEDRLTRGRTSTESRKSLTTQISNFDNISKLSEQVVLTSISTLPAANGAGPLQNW
human orexin-1 receptor, sequence (O43613 whole entry): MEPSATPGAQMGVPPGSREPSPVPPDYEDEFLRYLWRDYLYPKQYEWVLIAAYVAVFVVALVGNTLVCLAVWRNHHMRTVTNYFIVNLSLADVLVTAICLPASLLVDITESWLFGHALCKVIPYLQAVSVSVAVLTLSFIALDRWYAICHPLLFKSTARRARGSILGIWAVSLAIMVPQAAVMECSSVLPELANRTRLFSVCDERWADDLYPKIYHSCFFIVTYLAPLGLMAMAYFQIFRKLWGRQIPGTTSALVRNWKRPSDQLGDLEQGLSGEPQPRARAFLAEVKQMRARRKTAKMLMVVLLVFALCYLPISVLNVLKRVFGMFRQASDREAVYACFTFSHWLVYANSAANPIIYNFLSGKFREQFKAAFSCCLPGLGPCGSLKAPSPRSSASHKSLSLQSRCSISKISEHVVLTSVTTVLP

SMILES | IC50 [1, 3] [nM] | IC50 [2, 3] [nM] | IC50 ([1]; compound incubation 120 min) [nM] | IC50 ([2]; compound incubation 120 min) [nM]
COc1cccc(OC)c1C1CCC(C)(C)C(=O)N1Cc1ccc(OC(F)(F)F)cc1 (stereo not drawn) [Example 215, 6-(2,6-dimethoxyphenyl)-3,3-dimethyl-1-(4-(trifluoromethoxy)benzyl)piperidin-2-one] | 1290 | 1410 |  | 
COc1cccc(OC)c1C1CCC(C)C(=O)N1Cc1ccc(OC(F)(F)F)cc1 (stereo not drawn) [Example 216, 6-(2,6-dimethoxyphenyl)-3-methyl-1-(4-(trifluoromethoxy)benzyl)piperidin-2-one] | 894 | 40 |  | 
COc1cccc(OC)c1C1CC(C)(C)C(=O)N1Cc1ccc(OC(F)(F)F)cc1 (stereo not drawn) [Example 217, 5-(2,6-dimethoxyphenyl)-3,3-dimethyl-1-(4-(trifluoromethoxy)benzyl)pyrrolidin-2-one] | 252 | 22 |  | 
COc1cccc(OC)c1C1CCCC(=O)N1Cc1ccnc(-c2nccs2)c1 (stereo not drawn) [Example 219, 6-(2,6-dimethoxyphenyl)-1-((2-(thiazol-2-yl)pyridin-4-yl)methyl)piperidin-2-one] |  |  | 9 | 19
COc1cccc(Cl)c1C1CCCC(=O)N1Cc1ccc(OC(F)(F)F)cc1 (stereo not drawn) [Example 221, 6-(2-chloro-6-methoxyphenyl)-1-(4-(trifluoromethoxy)benzyl)piperidin-2-one] | 154 | 4880 |  | 
COc1cccc(C)c1C1CCCC(=O)N1Cc1ccc(OC(F)(F)F)cc1 (stereo not drawn) [Example 222, 6-(2-methoxy-6-methylphenyl)-1-(4-(trifluoromethoxy)benzyl)piperidin-2-one] | 268 | 4380 |  | 
COc1cccc(C(F)(F)F)c1C1CCCC(=O)N1Cc1ccc(OC(F)(F)F)cc1 (stereo not drawn) [Example 223, 6-(2-methoxy-6-(trifluoromethyl)phenyl)-1-(4-(trifluoromethoxy)benzyl)piperidin-2-one] | 2950 | > 21600 |  | 
O=C1CCCC(c2c(F)cccc2F)N1Cc1ccc(OC(F)(F)F)cc1 (stereo not drawn) [Example 224, 6-(2,6-difluorophenyl)-1-(4-(trifluoromethoxy)benzyl)piperidin-2-one] | 2470 | 3190 |  | 
COc1cc(F)c(C2CCCC(=O)N2Cc2ccc(OC(F)(F)F)cc2)c(F)c1 (stereo not drawn) [Example 225, 6-(2,6-difluoro-4-methoxyphenyl)-1-(4-(trifluoromethoxy)benzyl)piperidin-2-one] | 5480 | 4210 |  | 
Cc1ccc(F)c(C2CCCC(=O)N2Cc2ccc(OC(F)(F)F)cc2)c1F (stereo not drawn) [Example 226, 6-(2,6-difluoro-3-methylphenyl)-1-(4-(trifluoromethoxy)benzyl)piperidin-2-one] | 2440 | 5180 |  | 
O=C1CCCC(c2c(F)cccc2C(F)(F)F)N1Cc1ccc(OC(F)(F)F)cc1 (stereo not drawn) [Example 227, 6-(2-fluoro-6-(trifluoromethyl)phenyl)-1-(4-(trifluoromethoxy)benzyl)piperidin-2-one] | 5900 | 3500 |  | 
O=C1CCCC(c2c(Cl)cccc2Cl)N1Cc1ccc(OC(F)(F)F)cc1 (stereo not drawn) [Example 228, 6-(2,6-dichlorophenyl)-1-(4-(trifluoromethoxy)benzyl)piperidin-2-one] | 456 | 2970 |  | 
O=C1CCCC(c2c(F)cccc2Cl)N1Cc1ccc(OC(F)(F)F)cc1 (stereo not drawn) [Example 229, 6-(2-chloro-6-fluorophenyl)-1-(4-(trifluoromethoxy)benzyl)piperidin-2-one] | 1190 | 2920 |  | 
COc1cccc(OC(C)C)c1C1CCCC(=O)N1Cc1ccc(OC(F)(F)F)cc1 (stereo not drawn) [Example 230, 6-(2-isopropoxy-6-methoxyphenyl)-1-(4-(trifluoromethoxy)benzyl)piperidin-2-one] | 85 | 363 |  | 
COc1cc(F)cc(OC)c1C1CCCC(=O)N1Cc1ccc(OC(F)(F)F)cc1 (stereo not drawn) [Example 232, 6-(4-fluoro-2,6-dimethoxyphenyl)-1-(4-(trifluoromethoxy)benzyl)piperidin-2-one] | 27 | 270 |  | 
